“Also recorded” adds a separate entry of the source.
Tests used:
[1] = system: GL261 mouse glioma; assay: NEO100-mediated human CAR T cell delivery to brain and tumor (CD3 IHC); assay type: in vivo
Protocol: 2-million CD19 and Lym-1 human CAR T cells that were suspended in 0.9% saline working solution to be used for the IV injection with and without intracardiac NEO100.
Preparation of the working solution for intracardiac injection of NEO100: 3% NEO100 suspended in 0.9% saline.
40 μl 3% NEO100 in saline was injected slowly to complete intracardiac application. Direct cell injection into the heart could cause local microinfarctions if the cells are clumpy during injection, hemopericardium and death as a consequence. This is why ultrasound guided injections with a small 30 G needle is important to minimize these potential adverse effects, (1) enabling the visualization of the needle tract to ensure that the needle enters the left ventricle only, and (2) subsequent monitoring of the heart through not only ECG but visualization of heart wall function after the injection. The fine gauge of the needle ensures that the cells are not clumpy when the cells are injected through intracardiac puncture.
Immediate after the completion of NEO100 injection, 2 million human CAR T cells in 40 μl PBS were injected through tail vein catheter that pre-primed with saline solution. To avoid the possible adverse effects mentioned above by direct cell injection through intracardiac application, we set up 2-step procedures for the study.
Step 1: 40 μl 3% NEO100 in saline was injected slowly to complete intracardiac application. This procedure allows NEO100 to exert the function of BBB disruption.
Step 2: 2-million CAR T cells were injected by IV through tail vein catheter.
Brain Perfusion—In order to rule out the residue left over inside the blood vessel after euthanizing, the testing animals were perfused by 10 ml 0.9% normal saline solution through left ventricle to flush out the blood. […] Confocal Imaging—[…] fresh frozen sections were made by cryostasis machine and pasted on microslide. Coverslip was mounted on the brain section by DAPI mounting medium before Confocal examination. […]

[2] = system: recurrent malignant gliomas; settings: intranasal delivery, cited from earlier work
[3] = system: Raji's-Luc/GFP human B-cell lymphoma cells; assay: Lym-1 CAR T cell delivery in intracranial Raji lymphoma xenografts (survival); assay type: in vivo, NSG mice; settings: IV Lym-1 CAR T (5×10e6) + IC NEO100 (0.3% v/v=492 μM); control mice died within 15-20 days; P=0.0029
Protocol: 50,000 (5×10^4) human B-cell lymphoma cells, Raji's-Luc/GFP, were injected intracranially into NSG mice.
5 days post the tumor cells injection, the optical imaging was performed to confirm the tumor uptake (100% tumor uptake).
There were 3 experimental groups: (1) Control; (2) IV CAR T (5×10e6); (3) IV CAR T (5×10e6)+IC NEO100 (0.3% v/v=492 μM)
Body weight was monitored for the physical condition of the mice during the treatment. Tumor growth was monitored by optical imaging.

[4] = system: GL261 mouse glioma; assay: Anti-mouse PD-1 antibody therapeutic efficacy (survival) in intracranial syngeneic mouse glioma; assay type: in vivo, C57 BL/6 mice
Protocol: 100,000 GL261 mouse glioma cells were injected intracranially to immune competent mice, C57 BL/6. 7 days post the injection, the mice were randomly divided into 4 experimental groups, and initiated the treatment at the same day. • Group 1. Control: IV and Intracardiac injection of 40 μl Saline Solution (5). • Group 2. Antibody treated mice: IV 40 μl Anti-mouse PD1 antibody at the dose of 2.5 • mg/kg (5). • Group 3. NEO100 treated mice: Intracardiac injection of 40 μl 5% NEO100 (5). • Group 4. Combination of NEO100 and antibody treated mice: Intracardiac 40 μl 5% NEO100, followed by IV 40 μl Anti-PD1 antibody at the dose of 2.5 mg/kg (6).
Animal survival data were plotted using the Kaplan-Meier method. One-way ANOVA was used for the overall test for differences. Grouped comparisons were performed using the Tukey method of adjusting for multiple comparisons. Logrank (Mantel-Cox) test was applied for the comparison of survival curves. A statistical evaluation result of p<0.05 was considered significant.

[5] = system: blood-brain-barrier
Protocol: Brain Perfusion—Before euthanizing, the testing animals was perfused by 0.9% normal saline solution through left ventricle. The brain was removed and buried in OCT, and stored in −80° C. for further analysis.
Ultrasound Guided Intracardiac Puncture—Briefly, the animals were anesthetized using 2% isoflurane gas and fixed on the platform for intracardiac puncture. To penetrate the syringe needle into intercoastal space promptly through skin and muscle layers into the left ventricle under the guidance of ultrasound imaging. An indication of successful insertion of the needle into the left ventricle is the reflux of fresh arterial blood (pink color in contrast to dark red venous blood) into the syringe.
The extravasation of stained albumin from circulation could be visualized.
Different concentration of NE0100 (40 μ1 in 0.9% saline) was tested through intracardiac puncture, followed by immediate intravenous application of 2% Evans Blue (40 μ1 in volume). The brain was removed after perfusion.
Experimental groups include: • IC 2% EB only • IC 20% ethanol+2% EB • IC 20% ethanol+2% EB+5% NEO100 • IC 20% ethanol+5% NEO100, followed by 2% EB tail vein injection • IV 20% ethanol+2% EB+5% NEO100 • IV 20% ethanol+2% EB
The immune competent C57 BL/6 mice was injected with 5% NEO100 (v/v) through intracardiac puncture (IC), followed by intravenous injection of 2% Evans Blue at different time points, such as 0, 5 min, 15 min, 30 min, 1-hour, 2-hour, 3-hour, and 4 hours, post the IC injection.
Intracardiac Injection (IC): 5% NEO100. • 2. Followed by intravenous injection (IV) of 2% EB at different times. • 3. The testing animals were euthanized one hour after the IV injection.

[6] = system: Madin-Darby Canine Kidney (MDCK) cells; assay: In vitro BBB tight junction model (Transwell, TEER, fluorescence antibody); assay type: cell-based
Protocol: The labelled components are Transwell chemotaxis chamber; upper chamber; porous membrane and lower chamber. Transwell culture chambers (pore size: 0.8 μm). Madin-Darby Canine Kidney (MDCK) cells are epithelial cells. TEER: transepithelial/transendothelial electrical resistance. Fluorescence Ab: Alexa Fluo® 488; donkey anti-rat IgG (H+L). Fluorescence was measured in the lower chamber in about 120 minutes.

[7] = system: U-87 human glioma cells; assay: Intracranial glioma model in athymic nu/nu mice (survival); assay type: in vivo; settings: applicant's prior experience; untreated mice about four weeks
Protocol: Male athymic nu/nu mice (6-8 weeks old) will be employed for this research. Rodent subcutaneous/intracranial glioma model can be established as follows. Six to eight week old athymic nu/nu mice will be anesthetized with intraperitoneal injections of ketamine (80 mg/kg) and xylazine (10 mg/kg). For the intracranial glioma model, the mice are placed into a stereotactic head frame (Harvard Apparatus), and local anesthetic (0.2 cc of 0.25% xylocaine) is injected into the right frontal scalp. A knife blade is used to make a small incision, and a drill bit is used to make a small opening in the right frontal skull at the level of the coronal suture. Glioma cells (1×10^5 cells/10 μl), for example, U-87 human glioma cells, will be loaded into a calibrated Hamilton syringe. The needle tip will be placed precisely into the right frontal lobe of the […], and cells will be slowly injected using a control push from the Hamilton syringe. After the injection is finished, the syringe and needle will be removed, and the wound closed. […]
Brains will be harvested, and tumor size determined. […]

Structure (SMILES) | severe adverse effect or animal death ([1]; 3% NEO100 intracardiac injection) | penetration of human CAR T cells (anti-CD19 and Lym-1) into the tumor formed inside the brain ([1]; 40 μl 3% NEO100 intracardiac, then 2 million CAR T cells IV, compared to IV only, 6 h) | CD3 positive cells in the normal parts of brain ([1]; intracardiac NEO100 plus IV CAR T cells vs IV injection only) | patients achieving 6 month progression-free period ([2]; 140 treated patients) | disease response [2] | side effects from the treatment [2] | disease remission ([2]; several patients) | animal survival (Kaplan Meier) [3] | animal survival, combination ([4]; 40 μl 5% NEO100 intracardiac followed by anti-PD1 antibody 2.5 mg/kg IV) | animal survival, single agent ([4]; NEO100 alone (40 μl 5% intracardiac) or anti-PD1 alone (2.5 mg/kg IV)) | disturbance of the BBB (Evans Blue uptake into brain) ([5]; NEO100 1:1000 dilution (6.5 mM 40 μl) intracardiac, then 2% Evans Blue IV) | dopamine delivery to the brain ([5]; intracardiac NEO100) | opening of the BBB for antibodies ([5]; intracardiac injection (equivalent to intra-arterial injection for mice)) | tight junction in the brain ([5]; intracardiac injection of 5% NEO100 compared to normal brain) | safety of intraarterial administration ([5]; mouse, in vivo) | penetration of fluorescence labelled antibody across in vitro BBB model ([6]; Alexa Fluo 488 donkey anti-rat IgG, fluorescence in lower chamber at about 120 minutes) | TEER (transepithelial/transendothelial electrical resistance) ([6]; NEO100 2 mM) | survival after implantation [7]
C=C(C)[C@@H]1CC=C(CO)CC1 [NEO100, perillyl alcohol] | does not cause any severe adverse effect or animal death | greatly increase the penetration into the tumor | More CD3 positive cells were found in the normal parts of brain | 50% | regression or stabilization of the disease | almost non-existent | ≤ 3 years | survived | still alive | all the controls were dead | still effective to disturb the BBB | mediated dopamine delivery through the breached blood-brain-barrier | could open the BBB for antibodies | breached dramatically | safe to administer intraarterially | transiently allow labeled antibodies to transiently cross it; also recorded: enhanced penetration of fluorescence labelled antibody | decreased TEER | –
Cn1nnc2c(C(N)=O)ncn2c1=O [TMZ, temozolomide] | – | – | – | – | – | – | – | – | – | – | – | – | – | – | – | – | – | up to 8 weeks

From US12514828B2, “Methods of permeabilizing the blood brain barrier” (UNIVERSITY OF SOUTHERN CALIFORNIA, priority 2018, dated 2026)
